Source: patent US7384961B2, “Saturated and unsaturated heteroarylcycloalkylmethyl amines as anti-depressants” (priority 2002, dated 2008)
Where a name gives a salt, the structure may show the parent alone. Read-outs that look alike come from different tables or passages of the source.

Columns and labels:
NA re-uptake = molecular target: T1, NA re-uptake (Rattus norvegicus, UniProt Q63380); assay: Inhibition of NA re-uptake in rat brain synaptosomes (P2 fraction, hypothalamus); assay type: biochemical; conditions: for inhibition at 10 µM: 10 μmol/l
T1 construct: synaptosomes are freshly isolated from rat brain areas; from tissue; host or cells: rat brain synaptosomes (P2 fraction), hypothalamus
T1 sequence (Q63380 1-617): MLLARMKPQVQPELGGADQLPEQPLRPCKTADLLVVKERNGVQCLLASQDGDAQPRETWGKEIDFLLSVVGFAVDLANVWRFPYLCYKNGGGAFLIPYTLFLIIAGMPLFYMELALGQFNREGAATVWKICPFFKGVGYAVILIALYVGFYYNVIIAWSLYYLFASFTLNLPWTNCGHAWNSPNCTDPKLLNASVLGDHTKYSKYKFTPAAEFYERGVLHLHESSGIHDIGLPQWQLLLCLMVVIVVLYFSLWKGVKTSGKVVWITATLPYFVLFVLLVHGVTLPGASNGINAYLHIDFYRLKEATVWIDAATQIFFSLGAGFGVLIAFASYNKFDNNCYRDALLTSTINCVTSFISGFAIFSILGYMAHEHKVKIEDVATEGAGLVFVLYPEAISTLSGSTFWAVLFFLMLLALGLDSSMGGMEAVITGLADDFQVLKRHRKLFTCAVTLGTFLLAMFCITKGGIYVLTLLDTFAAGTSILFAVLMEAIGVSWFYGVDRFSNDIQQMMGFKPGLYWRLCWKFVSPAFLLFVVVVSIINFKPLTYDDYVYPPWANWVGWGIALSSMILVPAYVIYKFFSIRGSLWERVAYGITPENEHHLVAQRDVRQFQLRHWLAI
Excerpt: (§1) a) Investigations of the Inhibition of the Re-uptake of 5-HT and NA
(§2) In order to be able to carry out these in vitro studies, synaptosomes are freshly isolated from rat brain areas. […] These vesicular particles are isolated from the hypothalamus for the NA re-uptake and from the medulla +pons region of male rat brains for the 5-HT re-uptake.
(§3) The IC50 values were obtained with the aid of the “Figure P” computer program (version 6.0, Biosoft, Cambridge, England). […] The “Ligand” computer program (version 4, Biosoft, England) was used to obtain KD values.

5-HT re-uptake = molecular target: T2, 5-HT re-uptake (Rattus norvegicus, UniProt P31652); assay: Inhibition of 5-HT re-uptake in rat brain synaptosomes (P2 fraction, medulla + pons); assay type: biochemical; conditions: for inhibition at 10 µM: 10 μmol/l
T2 construct: synaptosomes are freshly isolated from rat brain areas; from tissue; host or cells: rat brain synaptosomes (P2 fraction), medulla + pons region, male rats
T2 sequence (P31652 whole entry): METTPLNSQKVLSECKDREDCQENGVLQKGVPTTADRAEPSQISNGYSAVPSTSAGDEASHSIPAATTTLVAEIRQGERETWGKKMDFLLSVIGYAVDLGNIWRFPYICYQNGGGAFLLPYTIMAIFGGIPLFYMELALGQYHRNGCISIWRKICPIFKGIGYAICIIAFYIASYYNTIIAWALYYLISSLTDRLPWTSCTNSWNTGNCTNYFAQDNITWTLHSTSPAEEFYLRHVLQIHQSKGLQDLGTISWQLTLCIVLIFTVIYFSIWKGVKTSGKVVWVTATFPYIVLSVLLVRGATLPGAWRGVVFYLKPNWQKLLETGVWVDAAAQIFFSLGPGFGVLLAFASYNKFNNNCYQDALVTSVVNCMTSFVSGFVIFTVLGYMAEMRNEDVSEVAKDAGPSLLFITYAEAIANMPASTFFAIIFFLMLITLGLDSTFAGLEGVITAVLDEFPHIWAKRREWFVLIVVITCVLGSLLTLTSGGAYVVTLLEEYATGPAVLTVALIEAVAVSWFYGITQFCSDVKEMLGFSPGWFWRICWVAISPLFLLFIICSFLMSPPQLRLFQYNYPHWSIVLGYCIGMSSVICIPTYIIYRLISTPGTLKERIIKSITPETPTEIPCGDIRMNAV
Excerpt: as §1, §2, §3

mice = assay: Formalin test in mice (analgesic action, chronic pain component); assay type: in vivo; conditions: for ED50: Mus musculus, iv, read-out: Inhibition of the nociceptive behaviour versus control, ED50 value
Description: b) Investigations of the Analgesic Actions in the Formalin Test in Mice
The formalin test (Dubuisson, D. and Dennis, S. G., 1977, Pain, 4, 161-174) represents a model of acute and chronic pain. The chronic pain component was evaluated in the investigations described here.
A biphase nociceptive reaction which is recorded by observing three behaviour patterns which can be clearly differentiated from one another is induced in freely mobile test animals by a single formalin injection into the dorsal side of a hind paw.
Formalin is administered subcutaneously into the dorsal side of the right hind paw of each animal in a volume of 20 μl and a concentration of 1%.
The specific changes in behaviour which differ from the normal behaviour (score 0), such as raising (score 1) and shaking the paw (score 2) and biting and licking reactions (score 3), are observed and recorded continuously at component intervals of 3 min for up to 60 min after the administration of formalin. The changes in behaviour are weighted in different ways (score 0-3) and a pain rate (PR) is calculated using the following formula: PR=[(T0×0)+(T1×1)+(T2×2)+(T3×3)]/180.
The group size is 10 animals (n=10).
On the basis of the PR calculations, the action of the substance was determined as the change from a control in percent. The ED50 was determined by means of regression analysis.

Row | Compound | inhibition at 10 µM (NA re-uptake) [%] | inhibition at 10 µM (5-HT re-uptake) [%] | further results
1 | CN(C)C[C@@H]1CCCC[C@@H]1c1cccnc1 (relative stereo) [Example 6, cis-Dimethyl-(2-pyridin-3-yl-cyclohexylmethyl)amine hydrochloride] | 25 | 94 | –
2 | CN(C)C[C@@H]1CCCC[C@H]1c1cccnc1.Cl (relative stereo) [Example 7, trans-Dimethyl-(2-pyridin-3-yl-cyclohexylmethyl)amine hydrochloride] | 22 | 95 | ED50 (mice): 2.55 mg/kg
3 | CN(C)C[C@@H]1CCCCC[C@@H]1c1cccnc1 (relative stereo) [Example 26, cis-Dimethyl-(2-pyridin-3-yl-cycloheptylmethyl)-amine hydrochloride] | 28 | 82 | –
4 | CN(C)C[C@@H]1CCCCC[C@H]1c1cccnc1 (relative stereo) [Example 27, trans-Dimethyl-(2-pyridin-3-yl-cycloheptylmethyl)-amine hydrochloride] | 54 | 88 | –
5 | CN(C)C[C@@H]1CSCC[C@@]1(O)c1cccnc1.Cl (relative stereo) [Example 50, cis-3-Dimethylaminomethyl-4-pyridin-3-yl-tetrahydrothiopyran-4-ol hydrochloride] | – | – | NA re-uptake inhibition (10 μmol/l) (NA re-uptake): 29%; 5-HT re-uptake inhibition (10 μmol/l) (5-HT re-uptake): 54%; Inhibition of the nociceptive behaviour versus control; % inhibition (mice; 21.5 mg/kg i.v., mice): 37.0%
6 | COc1cncc([C@@H]2CCCCCC[C@H]2CN(C)C)c1 (relative stereo) [Example 70, trans-[2-(5-Methoxy-pyridin-3-yl)-cyclooctylmethyl]-dimethyl-amine and the corresponding hydrochloride] | – | – | NA re-uptake inhibition (10 μmol/l) (NA re-uptake): 52%; 5-HT re-uptake inhibition (10 μmol/l) (5-HT re-uptake): 89%
7 | COc1cncc([C@H]2CCCCCC[C@H]2CN(C)C)c1 (relative stereo) [Example 72, cis-[2-(5-Methoxy-pyridin-3-yl)-cyclooctylmethyl] -dimethyl-amine hydrochloride] | 53 | 60 | –
8 | CNCC1=C(c2cccnc2)CCCC1.Cl [Example 2, Methyl-(2-pyridin-3-yl-cyclohex-1-enylmethyl)amine hydrochloride] | 15 | 69 | Inhibition of the nociceptive behaviour versus control; % inhibition (mice; 21.5 mg/kg i.v., mice): 88%
9 | CN(CC1=C(c2cccnc2)CCCC1)Cc1ccccc1.Cl [Example 10, Benzylmethyl-(2-pyridin-3-yl-cyclohex-1-enylmethyl)amine hydrochloride] | – | – | Inhibition of the nociceptive behaviour versus control; % inhibition (mice; 10 mg/kg i.v., mice): 66.3%
10 | CN(C)CC1CCCCCC1(Cl)c1ccc(Cl)nc1 (stereo not drawn) [Example 13, [2-Chloro-2-(6-chloro-pyridin-3-yl)-cycloheptylmethyl]-dimethyl-amine hydrochloride] | 75 | 38 | –
11 | CN(C)CC1CCCCC1(Cl)c1cccnc1 (stereo not drawn) [Example 14, (2-Chloro-2-pyridin-3-yl-cyclohexylmethyl)-dimethyl-amine hydrochloride] | 27 | 73 | –
12 | CN(C)CC1CCCCC1(Cl)c1ccc(Cl)nc1 (stereo not drawn) [Example 15, [2-Chloro-2-(6-chloro-pyridin-3-yl)-cyclohexylmethyl]-dimethyl-amine hydrochloride] | 53 | 51 | –
13 | CN(C)CC1=C(c2cccnc2)CCCCC1.Cl [Example 23, Dimethyl-(2-pyridin-3-yl-cyclohept-1-enylmethyl)-amine hydrochloride] | 50 | 86 | ED50 (mice): 2.44 mg/kg
14 | CN(C)CC1CCCCC=C1c1cccnc1.Cl (stereo not drawn) [Example 24, Dimethyl-(2-pyridin-3-yl-cyclohept-2-enylmethyl)-amine hydrochloride] | 19 | 67 | ED50 (mice): 5.4 mg/kg
15 | CN(C)CC1=C(c2cccnc2)CCC1.Cl [Example 28, Dimethyl-(2-pyridin-3-yl-cyclopent-1-enylmethyl)-amine hydrochloride] | 29 | 83 | Inhibition of the nociceptive behaviour versus control; % inhibition (mice; 10 mg/kg i.v., mice): 92.6%
16 | CN(C)CC1CCC=C1c1cccnc1 (stereo not drawn) [Example 29, Dimethyl-(2-pyridin-3-yl-cyclopent-2-enylmethyl)-amine hydrochloride] | 64 | 69 | –

Row | Compound | inhibition at 10 µM (NA re-uptake) [%] | inhibition at 10 µM (5-HT re-uptake) [%] | further results
17 | CN(C)CC1CCCC1c1cccnc1.Cl (stereo not drawn) [Example 31, Dimethyl-(2-pyridin-3-yl-cyclopentylmethyl)-amine hydrochloride] | 8 | 70 | Inhibition of the nociceptive behaviour versus control; % inhibition (mice; 10 mg/kg i.v., mice): 89.7%
18 | CN(C)CC1=C(c2cccnc2)CCCCCC1.Cl [Example 32, Dimethyl-(2-pyridin-3-yl-cyclooct-1-enylmethyl)-amine hydrochloride] | 55 | 78 | ED50 (mice; mice, formalin test): 2.77 mg/kg
19 | CN(C)CC1CCCCCC=C1c1cccnc1 (stereo not drawn) [Example 33, Dimethyl-(2-pyridin-3-yl-cyclooct-2-enylmethyl)-amine hydrochloride] | 50 | 74 | –
20 | CN(C)CC1=C(c2ccncc2)CCCCC1 [Example 38, Dimethyl-(2-pyridin-4-yl-cyclohept-1-enylmethyl)-amine hydrochloride] | 73 | 76 | –
21 | CN(C)CC1CCCCC=C1c1ccc(Cl)nc1 (stereo not drawn) [Example 48, [2-(6-chloro-pyridin-3-yl)-cyclohept-2-enylmethyl]-dimethyl-amine hydrochloride] | 82 | 81 | –
22 | CN(C)CC1=C(c2ccc(Cl)nc2)CCCC1 [Example 49, [2-(6-Chloro-pyridin-3-yl)-cyclohex-1-enylmethyl]-dimethyl-amine hydrochloride] | 67 | 55 | –
23 | COc1cncc(C2=C(CN(C)C)CCCC2)c1 [Example 54, [2-(5-Methoxy-pyridin-3-yl)-cyclohex-1-enylmethyl]-dimethyl-amine hydrochloride] | 17 | 85 | –
24 | COc1cncc(C2=CCCCC2CN(C)C)c1 (stereo not drawn) [Example 55, [2-(5-Methoxy-pyridin-3-yl)-cyclohex-2-enylmethyl]-dimethyl-amine hydrochloride] | 34 | 67 | –
25 | COc1cncc(C2CCCCCC2CN(C)C)c1 (stereo not drawn) [Example 60, [2-(5-Methoxy-pyridin-3-yl)-cycloheptylmethyl] -dimethyl-amine hydrochloride] | 30 | 75 | –
26 | COc1cncc(C2CCCCC2CN(C)C)c1 (stereo not drawn) [Example 62, [2-(5-Methoxy-pyridin-3-yl)-cyclohexylmethyl] -dimethyl-amine hydrochloride] | 13 | 77 | –
27 | CN(C)CC1=C(c2cncc(O)c2)CCCC1 [Example 64, 5-(2-Dimethylaminomethyl-cyclohex-1-enyl)-pyridin-3-ol hydrochloride] | 6 | 68 | –
28 | CCCN(CCC)CC1=C(c2cccnc2)CCCC1.Cl [Example 65, Dipropyl-(2-pyridin-3-yl-cyclohex-1-enylmethyl)-amine hydrochloride] | -8 | 54 | Inhibition of the nociceptive behaviour versus control; % inhibition (mice; 4.64 mg/kg i.v., mice): −39.4%
29 | CN(C)CC1=C(c2ccc(Cl)nc2)CCCC1.Cl [Example 68, [2-(6-Chloro-pyridin-3-yl)-cyclohex-1-enylmethyl]-dimethyl-amine hydrochloride] | – | – | NA re-uptake inhibition (10 μmol/l) (NA re-uptake; hydrochloride): 62%; 5-HT re-uptake inhibition (10 μmol/l) (5-HT re-uptake; hydrochloride): 67%
30 | CN(C)CC1CCCCCC=C1c1ccc(Cl)nc1 (stereo not drawn) [Example 71, [2-(6-Chloro-pyridin-3-yl)-cyclooct-2-enylmethyl] -dimethyl-amine hydrochloride] | 77 | 74 | –
31 | COc1cncc(C2=CCCCCCC2CN(C)C)c1 (stereo not drawn) [Example 73, [2-(5-Methoxy-pyridin-3-yl)-cyclooct-2-enylmethyl] -dimethyl-amine hydrochloride] | 55 | 89 | –
32 | COc1cncc(C2=C(CN(C)C)CCCCCC2)c1 [Example 74, [2-(5-Methoxy-pyridin-3-yl)-cyclooct-1-enylmethyl] -dimethyl-amine hydrochloride] | 56 | 72 | –
